The structures appear in SMILES notation. Read-outs that look alike come from different tables or passages of the source.

The EC50 is the concentration that produces a half-maximal response. In general, solubility refers to the concentration that dissolves in the medium under given conditions.

In one data set the target is T1, human GLP-1R (Homo sapiens, UniProt P43220).
T1 construct: HEK-293T cells overexpressing full-length human GLP-1R; FLAG (N); host or cells: HEK-293T
The experiment in a line: Human GLP1R agonist activity, intracellular cAMP accumulation. The class given is cell-based. The following applies: HEK-293T cells overexpressing human GLP-1R, 1 hr. The protocol:
Cells are cultured per the manufacturer's protocol in DMEM with 10% fetal bovine serum and 1 μg/mL puromycin and stored in frozen aliquots to be used as assay ready cells. On the day of the assay, cells are removed from frozen storage, washed two times in 1× Kreb's Ringer Buffer (Zenbio, Research Triangle Park, N.C.), and re-suspended to a concentration of 4×10^5 cells/mL in 1× Kreb's Ringer Buffer. […] Cells are incubated with test compound for 1 hr at room temperature in the dark, and cAMP accumulation is measured using the Cisbio HiRange cAMP assay kit (Bedford, Mass.) per the manufacturer's protocol. Anti-cAMP antibody and d2-cAMP tracer reagents diluted in lysis/detection buffer are incubated in the dark for 1 hr, and results are measured on an Envision plate reader (Perkin Elmer, Waltham, Mass.). Data is normalized using 1 nm GLP-1 as 100% activity, and DMSO alone as 0% activity.
(In general: cAMP levels reflect the balance of adenylyl cyclase and phosphodiesterase activity.)

The next data set is described as follows: physchem. In outline:
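Solubility at pH 7.4 determined by stepwise addition of 200 mM phosphate buffer in 100 μL increments to 3 mg peptide, mixing briefly each time, until no insoluble material remained, then measured by liquid chromatography.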

Setting [1] is: read-out: Human GLP1R cAMP EC50, HEK293T.
[2] abbreviates: Human GLP1R cAMP EC50, HEK293T (nM).
Setting [3] is: pH 7.4, aqueous buffer, pH 7.4 Phosphate Buffer - Solubility, 200 mM Phosphate buffer pH 7.4.
The mark [4] stands for this setting: pH 7.4, solubility in phosphate buffer at pH 7.4, 200 mM phosphate buffer pH 7.4.

T1 sequence (P43220 24-463): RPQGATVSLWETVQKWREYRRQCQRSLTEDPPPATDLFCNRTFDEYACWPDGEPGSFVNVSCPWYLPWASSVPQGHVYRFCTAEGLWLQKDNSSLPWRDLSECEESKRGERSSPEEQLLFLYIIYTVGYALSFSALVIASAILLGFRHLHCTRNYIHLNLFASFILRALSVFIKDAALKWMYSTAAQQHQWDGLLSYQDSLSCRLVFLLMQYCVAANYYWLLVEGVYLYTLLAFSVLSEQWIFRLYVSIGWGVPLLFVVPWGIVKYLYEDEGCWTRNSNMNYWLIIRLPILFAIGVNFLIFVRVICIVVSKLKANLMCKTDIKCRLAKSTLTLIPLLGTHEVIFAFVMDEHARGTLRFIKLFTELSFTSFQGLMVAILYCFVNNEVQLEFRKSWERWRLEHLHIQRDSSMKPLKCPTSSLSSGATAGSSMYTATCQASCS

Turning to `CC[C@H](C)[C@H](NC(=O)[C@H](Cc1ccccc1)NC(=O)[C@@H](NC(=O)CNC(=O)[C@H](CCC(=O)O)NC(=O)C(C)(C)NC(=O)[C@H](Cc1ccc(O)cc1)NC)[C@@H](C)O)C(=O)N[C@@H](CO)C(=O)N[C@@H](CC(=O)O)C(=O)N[C@@H](Cc1ccc(O)cc1)C(=O)N[C@@H](CO)C(=O)N[C@H](C(=O)NC(C)(C)C(=O)N[C@@H](CC(C)C)C(=O)N[C@@H](CC(=O)O)C(=O)N[C@@H](CO)C(=O)N[C@@H](CCCCNC(=O)CNC(=O)CNC(=O)CNC(=O)CNC(=O)CNC(=O)CCCCCCCCCCCCCCCCC(=O)O)C(=O)N[C@@H](C)C(=O)N[C@@H](CCC(N)=O)C(=O)NC(C)(C)C(=O)N[C@@H](CC(=O)O)C(=O)N[C@@H](Cc1ccccc1)C(=O)N[C@H](C(=O)N[C@@H](CC(N)=O)C(=O)N[C@@H](Cc1c[nH]c2ccccc12)C(=O)N[C@@H](CC(C)C)C(=O)N[C@@H](CC(C)C)C(=O)N[C@@H](C)C(=O)N[C@@H](CCC(N)=O)C(=O)N[C@@H](CCCCN)C(=O)NCC(=O)O)C(C)C)[C@@H](C)CC` [Compound 77], the EC50 on human GLP-1R (setting [1]) was 17 nM. The solubility in “physchem” (pH 7.4) is no less than 15 mg/mL; in “physchem” (pH 7.4, aqueous buffer), no less than 30 mg/mL.
Turning to `CC[C@H](C)[C@H](NC(=O)[C@H](Cc1ccccc1)NC(=O)[C@@H](NC(=O)CNC(=O)[C@H](CCC(=O)O)NC(=O)C(C)(C)NC(=O)[C@H](Cc1ccc(O)cc1)NC)[C@@H](C)O)C(=O)N[C@@H](CO)C(=O)N[C@@H](CC(=O)O)C(=O)N[C@@H](Cc1ccc(O)cc1)C(=O)N[C@@H](CO)C(=O)N[C@H](C(=O)NC(C)(C)C(=O)N[C@@H](CCCCNC(=O)CNC(=O)CNC(=O)CNC(=O)CNC(=O)CNC(=O)CCCCCCCCCCCCCCCC(=O)O)C(=O)N[C@@H](CC(=O)O)C(=O)N[C@@H](CCCNC(=N)N)C(=O)NC(C)(C)C(=O)N[C@@H](C)C(=O)N[C@@H](CCC(N)=O)C(=O)NC(C)(C)C(=O)N[C@@H](CC(N)=O)C(=O)N[C@@H](Cc1ccccc1)C(=O)N[C@H](C(=O)N[C@@H](CC(N)=O)C(=O)N[C@@H](Cc1c[nH]c2ccccc12)C(=O)N[C@@H](CC(C)C)C(=O)N[C@@H](CC(C)C)C(=O)N[C@@H](C)C(=O)N[C@@H](CCC(N)=O)C(=O)N[C@@H](CO)C(=O)N1CCC[C@H]1C(=O)N[C@@H](CO)C(=O)N[C@@H](CO)C(=O)NCC(=O)N[C@@H](C)C(=O)N1CCC[C@H]1C(=O)N1CCC[C@H]1C(=O)N1CCC[C@H]1C(=O)N[C@@H](CO)C(=O)O)C(C)C)[C@@H](C)CC` [Compound 95], at human GLP-1R (setting [2]), the EC50 amounted to 17.4 nM. The solubility in the data set “physchem” (setting [3]) is no less than 60 mg/mL; in the data set “physchem” (setting [4]), no less than 15 mg/mL.
Consider `CC[C@H](C)[C@H](NC(=O)[C@H](Cc1ccccc1)NC(=O)[C@@H](NC(=O)CNC(=O)[C@H](CCC(=O)O)NC(=O)C(C)(C)NC(=O)[C@H](Cc1ccc(O)cc1)NC)[C@@H](C)O)C(=O)N[C@@H](CO)C(=O)N[C@@H](CC(=O)O)C(=O)N[C@@H](Cc1ccc(O)cc1)C(=O)N[C@@H](CO)C(=O)N[C@H](C(=O)NC(C)(C)C(=O)N[C@@H](CCCCNC(=O)CNC(=O)CNC(=O)CNC(=O)CNC(=O)CNC(=O)CCCCCCCCCCCCCCCC(=O)O)C(=O)N[C@@H](CC(=O)O)C(=O)N[C@@H](CCCNC(=N)N)C(=O)NC(C)(C)C(=O)N[C@@H](C)C(=O)N[C@@H](CCC(N)=O)C(=O)NC(C)(C)C(=O)N[C@@H](CC(=O)O)C(=O)N[C@@H](Cc1ccccc1)C(=O)N[C@H](C(=O)N[C@@H](CC(N)=O)C(=O)N[C@@H](Cc1c[nH]c2ccccc12)C(=O)N[C@@H](CC(C)C)C(=O)N[C@@H](CC(C)C)C(=O)N[C@@H](C)C(=O)N[C@@H](CCC(N)=O)C(=O)N[C@@H](CCCNC(=N)N)C(=O)NCC(=O)O)C(C)C)[C@@H](C)CC` [Compound 98], for which the EC50 on human GLP-1R (setting [1]) worked out at 112 nM. Moreover, the solubility was no less than 15 mg/mL in “physchem” (pH 7.4) and no less than 30 mg/mL in “physchem” (pH 7.4, aqueous buffer).
In turn, `CC[C@H](C)[C@H](NC(=O)[C@H](CO)NC(=O)[C@H](Cc1ccc(O)cc1)NC(=O)[C@H](CC(=O)O)NC(=O)[C@H](CO)NC(=O)[C@@H](NC(=O)[C@H](Cc1ccccc1)NC(=O)[C@@H](NC(=O)CNC(=O)[C@H](CCC(=O)O)NC(=O)C(C)(C)NC(=O)[C@H](Cc1ccc(O)cc1)NC)[C@@H](C)O)[C@@H](C)CC)C(=O)N[C@@H](C)C(=O)N[C@@H](CCCCNC(=O)CNC(=O)CNC(=O)CNC(=O)CNC(=O)CNC(=O)CCCCCCCCCCCCCCCCCCC(=O)O)C(=O)N[C@@H](CC(=O)O)C(=O)N[C@@H](CCCNC(=N)N)C(=O)NC(C)(C)C(=O)N[C@@H](C)C(=O)N[C@@H](CCC(N)=O)C(=O)NC(C)(C)C(=O)N[C@@H](CC(N)=O)C(=O)N[C@@H](Cc1ccccc1)C(=O)N[C@H](C(=O)N[C@@H](CC(N)=O)C(=O)N[C@@H](Cc1c[nH]c2ccccc12)C(=O)N[C@@H](CC(C)C)C(=O)N[C@@H](CC(C)C)C(=O)N[C@@H](C)C(=O)N[C@@H](CCC(N)=O)C(=O)N[C@@H](CO)C(=O)N1CCC[C@H]1C(=O)N[C@@H](CO)C(=O)N[C@@H](CO)C(=O)NCC(=O)N[C@@H](C)C(=O)N1CCC[C@H]1C(=O)N1CCC[C@H]1C(=O)N1CCC[C@H]1C(=O)N[C@@H](CO)C(=O)O)C(C)C` [Compound 112] gave a concentration giving a half-maximal response (EC50) at human GLP-1R (setting [2]) of 21.4 nM. Moreover, the solubility is no less than 30 mg/mL in the data set “physchem” (setting [3]) and no less than 15 mg/mL in “physchem” (setting [4]).
`CC[C@H](C)[C@H](NC(=O)[C@H](CO)NC(=O)[C@H](Cc1ccc(O)cc1)NC(=O)[C@H](CC(=O)O)NC(=O)[C@H](CO)NC(=O)[C@@H](NC(=O)[C@H](Cc1ccccc1)NC(=O)[C@@H](NC(=O)CNC(=O)[C@H](CCC(=O)O)NC(=O)C(C)(C)NC(=O)[C@H](Cc1ccc(O)cc1)NC)[C@@H](C)O)[C@@H](C)CC)C(=O)N[C@@H](C)C(=O)N[C@@H](CC(C)C)C(=O)N[C@@H](CC(=O)O)C(=O)N[C@@H](CCCNC(=N)N)C(=O)N[C@@H](CCCCNC(=O)CNC(=O)CNC(=O)CNC(=O)CNC(=O)CNC(=O)CCCCCCCCCCCCCCCCC(=O)O)C(=O)N[C@@H](C)C(=O)N[C@@H](CCC(N)=O)C(=O)NC(C)(C)C(=O)N[C@@H](CC(=O)O)C(=O)N[C@@H](Cc1ccccc1)C(=O)N[C@H](C(=O)N[C@@H](CC(N)=O)C(=O)N[C@@H](Cc1c[nH]c2ccccc12)C(=O)N[C@@H](CC(C)C)C(=O)N[C@@H](CC(C)C)C(=O)N[C@@H](C)C(=O)N[C@@H](CCC(N)=O)C(=O)N[C@@H](CO)C(=O)N1CCC[C@H]1C(=O)NCC(=O)O)C(C)C` [Compound 113]: the concentration for a half-maximal effect (EC50) at human GLP-1R (setting [1]) came to 13.5 nM. Further, the solubility in “physchem” (pH 7.4) was no less than 15 mg/mL; in “physchem” (pH 7.4, aqueous buffer), no less than 30 mg/mL.
On the same counts, the results for `CC[C@H](C)[C@H](NC(=O)[C@H](CO)NC(=O)[C@H](Cc1ccc(O)cc1)NC(=O)[C@H](CC(=O)O)NC(=O)[C@H](CO)NC(=O)[C@@H](NC(=O)[C@H](Cc1ccccc1)NC(=O)[C@@H](NC(=O)CNC(=O)[C@H](CCC(=O)O)NC(=O)C(C)(C)NC(=O)[C@H](Cc1ccc(O)cc1)NC)[C@@H](C)O)[C@@H](C)CC)C(=O)N[C@@H](C)C(=O)N[C@@H](CCCCNC(=O)CNC(=O)CNC(=O)CNC(=O)CNC(=O)CNC(=O)CCCCCCCCCCCCCCCCC(=O)O)C(=O)N[C@@H](CC(=O)O)C(=O)N[C@@H](CCCNC(=N)N)C(=O)NC(C)(C)C(=O)N[C@@H](C)C(=O)N[C@@H](CCC(N)=O)C(=O)N[C@@H](CCCNC(=N)N)C(=O)N[C@@H](CC(=O)O)C(=O)N[C@@H](Cc1ccccc1)C(=O)N[C@H](C(=O)N[C@@H](CCC(=O)O)C(=O)N[C@@H](Cc1c[nH]c2ccccc12)C(=O)N[C@@H](CC(C)C)C(=O)N[C@@H](CC(C)C)C(=O)N[C@@H](C)C(=O)N[C@@H](CCC(N)=O)C(=O)N[C@@H](CO)C(=O)N1CCC[C@H]1C(=O)NCC(=O)O)C(C)C` [Compound 120] are 15.8 nM, no less than 15 mg/mL and no less than 30 mg/mL.

Values taken from patent publication US20230143604A1, “QW DOSING OF GIP RECEPTOR AGONIST PEPTIDE COMPOUNDS AND USES THEREOF” (TAKEDA PHARMACEUTICAL COMPANY LIMITED, priority 2020, published 2023).
